Results taken from PubChem BioAssay (NCI).
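Method: 48-hour compound exposure of cells in 96-well plates, five concentrations, linear interpolation of endpoints. GI50 = concentration required for 50% inhibition of growth. TGI: concentration producing complete growth inhibition.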

Legend:
Assay in all cases: NCI tumour cell line growth inhibition, 48 h
[1] = test system: K-562 leukemia
[2] = test system: SK-MEL-5 melanoma
[3] = test system: UO-31 renal
[4] = test system: NCI-H226 lung
[5] = test system: HCT-15 colon
[6] = test system: SNB-75 CNS
[7] = test system: MOLT-4 leukemia
[8] = test system: NCI-H460 lung
[9] = test system: HOP-62 NSCLC
[10] = test system: COLO 205 colon
[11] = test system: CAKI-1 renal
[12] = test system: PC-3 prostate
[13] = test system: OVCAR-4 ovarian
[14] = test system: EKVX NSCLC
[15] = test system: IGROV1 ovarian
[16] = test system: SF-268 CNS
[17] = test system: SNB-19 CNS
[18] = test system: HS 578T breast
[19] = test system: OVCAR-5 ovarian
[20] = test system: TK-10 renal
[21] = test system: UACC-257 melanoma
[22] = test system: MCF7 breast
[23] = test system: SW-620 colon
[24] = test system: HCT-116 colon
[25] = test system: T-47D breast
[26] = test system: LOX IMVI melanoma
[27] = test system: KM12 colon
[28] = test system: A498 renal
[29] = test system: RPMI-8226 leukemia
[30] = test system: OVCAR-8 ovarian
[31] = test system: SK-MEL-28 melanoma
[32] = test system: HL-60(TB) leukemia
[33] = test system: CCRF-CEM leukemia
[34] = test system: MDA-MB-231 breast
[35] = test system: HT29 colon
[36] = test system: M14 melanoma
[37] = test system: HCC-2998 colon
[38] = test system: SF-295 CNS
[39] = test system: U251 CNS
[40] = test system: OVCAR-3 ovarian
[41] = test system: SK-OV-3 ovarian
[42] = test system: MDA-MB-435
[43] = test system: MALME-3M melanoma
[44] = test system: SN12C renal
[45] = test system: SR leukemia
[46] = test system: NCI/ADR-RES ovarian
[47] = test system: NCI-H23 lung
[48] = test system: BT-549 breast
[49] = test system: ACHN renal
[50] = test system: SF-539 CNS
[51] = test system: HOP-92 NSCLC
[52] = test system: DU-145 prostate
[53] = test system: UACC-62 melanoma
[54] = test system: SK-MEL-2 melanoma
[55] = test system: 786-0 renal
[56] = test system: NCI-H522 lung
[57] = test system: A549 NSCLC

CC(C)(O)c1cncc(-c2ccc3ncc(C#N)c(N4CCc5cc(F)c(Cl)cc54)c3c2)c1
GI50 [1]: 7.09 µM | TGI [1]: > 100 µM | GI50 [2]: 3.95 µM | TGI [2]: 13.8 µM | GI50 [3]: 0.554 µM | TGI [3]: 8.69 µM | GI50 [4]: 1.77 µM | TGI [4]: 15.4 µM | GI50 [5]: 4.28 µM | TGI [5]: > 100 µM | GI50 [6]: 1.22 µM | TGI [6]: 5.67 µM | GI50 [7]: 3.11 µM | TGI [7]: > 100 µM | GI50 [8]: 3.24 µM | TGI [8]: > 100 µM | GI50 [9]: 2.7 µM | TGI [9]: 57.3 µM | GI50 [10]: 4.48 µM | TGI [10]: 26.7 µM | GI50 [11]: 2.37 µM | TGI [11]: > 100 µM | GI50 [12]: 2.86 µM | TGI [12]: > 100 µM | GI50 [13]: 2.84 µM | TGI [13]: 18.5 µM | GI50 [14]: 2.55 µM | TGI [14]: 11.3 µM | GI50 [15]: 1.57 µM | TGI [15]: 6.55 µM | GI50 [16]: 3.84 µM | TGI [16]: > 100 µM | GI50 [17]: 4.08 µM | TGI [17]: > 100 µM | GI50 [18]: 1.23 µM | TGI [18]: 4.7 µM | GI50 [19]: 3.3 µM | TGI [19]: 82.7 µM | GI50 [20]: 8.33 µM | TGI [20]: 40 µM | GI50 [21]: 4.22 µM | TGI [21]: 63.3 µM | GI50 [22]: 6 µM | TGI [22]: 53.4 µM | GI50 [23]: 4.51 µM | TGI [23]: > 100 µM | GI50 [24]: 5.84 µM | TGI [24]: > 100 µM | GI50 [25]: 4.06 µM | TGI [25]: 76.5 µM | GI50 [26]: 1.81 µM | TGI [26]: 17.3 µM | GI50 [27]: 6.81 µM | TGI [27]: > 100 µM | GI50 [28]: 2.07 µM | TGI [28]: 6.17 µM | GI50 [29]: 2.92 µM | TGI [29]: 87.4 µM | GI50 [30]: 3.19 µM | TGI [30]: > 100 µM | GI50 [31]: 3.39 µM | TGI [31]: 41 µM | GI50 [32]: 6.06 µM | TGI [32]: 28.2 µM | GI50 [33]: 4.25 µM | TGI [33]: > 100 µM | GI50 [34]: 2.6 µM | TGI [34]: 30.4 µM | GI50 [35]: 3.31 µM | TGI [35]: > 100 µM | GI50 [36]: 3.79 µM | TGI [36]: > 100 µM | GI50 [37]: 3.75 µM | TGI [37]: 63.8 µM | GI50 [38]: 2.38 µM | TGI [38]: 14.1 µM | GI50 [39]: 4.71 µM | TGI [39]: > 100 µM | GI50 [40]: 2.91 µM | TGI [40]: 40.3 µM | GI50 [41]: 1.83 µM | TGI [41]: 8.64 µM | GI50 [42]: 3.36 µM | TGI [42]: 32.4 µM | GI50 [43]: 1.99 µM | TGI [43]: 7.06 µM | GI50 [44]: 2.03 µM | TGI [44]: > 100 µM | GI50 [45]: 3.52 µM | TGI [45]: > 100 µM | GI50 [46]: 4.4 µM | TGI [46]: 98.2 µM | GI50 [47]: 3.6 µM | TGI [47]: 64.3 µM | GI50 [48]: 2.7 µM | TGI [48]: 22.7 µM | GI50 [49]: 2.89 µM | TGI [49]: > 100 µM | GI50 [50]: 2.88 µM | TGI [50]: 15.8 µM | GI50 [51]: 1.79 µM | TGI [51]: 7.79 µM | GI50 [52]: 3.71 µM | TGI [52]: > 100 µM | GI50 [53]: 1.84 µM | TGI [53]: 10.2 µM | GI50 [54]: 4.26 µM | TGI [54]: 21.6 µM | GI50 [55]: 3.86 µM | TGI [55]: > 100 µM | GI50 [56]: 3.95 µM | TGI [56]: > 100 µM | GI50 [57]: 3.64 µM | TGI [57]: > 100 µM
